Results as given in PMC5754413, “Mass balance, metabolic disposition, and pharmacokinetics of a single oral dose of regorafenib in healthy human subjects” (Cancer Chemotherapy and Pharmacology, 2017).
Where “and” joins values, the source holds several entries; their conditions need not be identical. Identical values can stand only once.

Legend:
human hepatocytes = test: In vitro metabolism of [14C]regorafenib in human hepatocytes; assay type: in vitro ADME; details: [14C]regorafenib 2 µM, 2 h
Protocol: Primary human hepatocytes were obtained from two male donors. […] Regorafenib was added from a 200 µM stock solution in acetonitrile, resulting in 1% final acetonitrile in the incubation. At 0 and 2 h, aliquots of the incubation mixture were removed and the incubation was terminated with acetonitrile to a final content of about 30% (v/v). Samples were analyzed directly or stored at − 20 °C until analysis. Analysis was performed by HPLC–liquid scintillation counting (HPLC–LSC) and HPLC–high-resolution mass spectrometry (HPLC–HRMS/MS).

[1] = Metabolite profiling in plasma by HPLC–LSC; assay type: in vivo, human; details: for Occurrence in plasma: radiochromatography of plasma; for Percent of total AUC(0–144) of radioactivity in plasma: based on HPLC–LSC, mean
Protocol: Blood and plasma: Blood samples (18.7 mL per each time point) were collected into nonbeaded lithium-heparinized tubes immediately pre-dose and at the following post-dose times: 0.5, 1, 1.5, 2, 2.5, 3, 4, 6, 9, 12, 16, 20, 24, 36, 48, 72, 96, 120, 144, 192, 240, and 288 h. For each sample, 1 mL of whole blood was stored at 4 °C for subsequent LSC and the remainder was processed for plasma. Individual 150 μL plasma samples for each time point were treated with formic acid (20 μL) and acetonitrile (450 μL). The samples were homogenized using a MS2 Minishaker® (IKA® Labortechnik, Staufen im Breisgau, Germany). The precipitated proteins were removed by centrifugation (5 min, 13,000 rpm, Biofuge). After concentrating the supernatant to about 80 μL, methanol (15 μL) was added. The individual samples were analyzed by HPLC with off-line radioactivity detection for metabolite profiling.
Pharmacokinetic outcome measures were generated by non-compartmental analysis of plasma concentration–time data using WinNonlin v4.1 (Pharsight Corporation) in conjunction with Kincalc v2.50 (Bayer AG). For individual subjects, primary outcome measures were maximum observed concentration (C max) and area under the concentration–time curve from time zero to infinity (AUC). […] The metabolite or regorafenib percentages were calculated by AUC(0–144)metabolite or regorafenib divided by AUC(0–144)radioactivity calculated from data obtained by HPLC–LSC analysis. Secondary outcomes were: time to C max (t max); apparent terminal elimination half-life (t ½); apparent volume of distribution during the terminal phase after extravascular administration (Vz/F); and total body clearance of drug calculated after extravascular administration (e.g., apparent oral clearance) (CL/F). AUC was estimated by the sum of partial areas: partial areas were calculated using the linear (if C i ≤ C i+1) or the logarithmic (if C i > C i+1) trapezoidal rules. The quality of the half-life calculation was assessed based on graphs showing the concentration–time profile. For reliable calculation of the half-life, at least three data points (concentration/time values) were used. The extrapolated portion of the AUC from the last measured data point C(t n) to infinity was calculated using the concentration C last,calc, which was calculated from the log-linear regression line used for half-life calculation rather than C(t n). In addition, appropriate pharmacokinetic parameters were derived from the total radioactivity-versus-time data in blood and plasma.
(§1) Due to the limited amount of radiocarbon associated with many of the samples, analyses were conducted using HPLC with fraction collection followed by off-line LSC. Samples were analyzed on a 150 × 3 mm Prodigy® ODS-3 100A, 3 µm column (Phenomenex, Aschaffenburg, Germany) protected by 8 × 3 mm Nucleosil® 100-3 C18 HD guard columns (Macherey–Nagel, Düren, Germany). Metabolites were separated with a gradient of aqueous potassium dihydrogen phosphate (1 g/L, pH 2.0, mobile phase A) versus acetonitrile (mobile phase B) at a flow rate of 0.5 mL/min (gradient: 0% B at 0 min, linear to 50% B at 10 min, linear to 60% B at 25 min, linear to 80% B at 26 min, plateau at 80% B to 30 min). The radiochemical profile of [^14C]regorafenib-derived radioactivity was determined for all urine samples, plasma extracts, and fecal homogenate extracts. Here, HPLC fractionation into 96-well plates was followed by off-line LSC (Wallac 1450 MicroBeta liquid scintillation analyzer) after adding 150 μL of scintillation cocktail to each well (Ultima-Flo™ AP, PerkinElmer; sampling rate: 10 s/well) using the Wallac 1450 Microbeta™ Plusliquid detector. Reconstructed radiochemical profiles were compiled from the resulting data.

[2] = design: method as in PMID 22421192, PMID 22568966; details: cited from earlier work; for Exposure relative to regorafenib after a single dose: plasma; for Secondary maximum of plasma concentration–time profile / Tertiary maximum of plasma concentration–time profile: steady state
human feces = test: Incubation with human feces under anaerobic conditions; assay type: in vitro ADME; details: for Conversion to the parent drug on incubation in feces: 10 μM, 24 h, 37 °C, anaerobic, reduction of M-2, hydrolysis of M-7; for Stability in feces / toward gut flora: anaerobic conditions, ex vivo
Protocol: Under anaerobic conditions, a suspension of fresh human feces (about 0.5 g) in degassed water (final volume 5 mL) was treated with a solution of [^14C]-labelled metabolite M-2 or metabolite M-7 (1 mg/mL acetonitrile; final concentration: 10 μM). After incubation for 24 h at 37 °C, the incubation mixture was terminated by the addition of acetonitrile (2 mL). After centrifugation (5 min, 3000 rpm), the supernatant (25 μL) was directly subjected to HPLC with the respective off-line radioactivity detection. As negative controls, metabolites M-2 and M-7 were incubated in water for 24 h at 37 °C.

[3] = design: method as in PMID 24896071; details: co-administration of ketoconazole with a single 160 mg dose of regorafenib; cited from earlier work
[4] = design: method as in PMID 27734608; details: cited from earlier work
[5] = Mass balance: urinary and fecal excretion of radioactivity and metabolite pattern in excreta; assay type: in vivo, human; details: individual values of the four subjects
Protocol: Urine: Urine samples were collected at 12-h intervals post-dose on Day 1 and then at 24-h intervals until 288 h post-dose. Urine was stored at 4 °C until it was divided into aliquots for LSC and subsequent metabolite profiling (aliquots were stored at − 20 °C).
Feces: Fecal samples were collected and homogenized in water on a daily basis until 12 days post-dose. Duplicate aliquots of the homogenates were taken for combustion with oxygen (in preparation for LSC), and separate aliquots were used for metabolite profiling.
Liquid samples: Duplicate aliquots of liquid samples were diluted with 1 mL distilled water, if necessary, and mixed with 10 mL Aquasafe 500 Plus scintillation fluid. Levels of radioactivity were measured by LSC (PerkinElmer 2100) with automatic quench correction by an external standard channel ratio method at 13 °C using Ultima Gold™ as the liquid scintillation cocktail. Lower limits of detection (LLOD) were 30 μg-Eq/L for plasma (sample volume 0.5 mL), 50 μg-Eq/L for whole blood (sample volume 0.3 mL), and 0.016 μg-Eq/g for urine (sample weight 1 g).
Fecal samples: Duplicate aliquots of fecal homogenate (about 0.3 g) were weighed into Combustocones® containing Combustopads® for combustion analysis. Samples were combusted using a Packard Tri-Carb 307 Automatic Sample Oxidizer. The resultant ^14CO2 generated was collected by absorption in Carbo-Sorb (8 mL) to which Permafluor E+ (10 mL) was added. Radioactivity was quantified using a liquid scintillation analyzer (PerkinElmer 2100), with automatic quench correction using an external standard method as urine sample analysis. Samples were allowed to stabilize with respect to heat and light, and each sample was analyzed for 5 min. Prior to calculation of individual results, a background count rate was determined and subtracted from each sample’s count rate. LOD was 0.05 μg-Eq/g (sample weight 0.3 g).
as §1

Formation in human hepatocytes (human hepatocytes)	Stability in feces / toward gut flora (human feces)	Percent of total AUC(0–144) of radioactivity in plasma [1] [%]	Mean total exposure, AUC(0–144 h) ([1]; plasma, HPLC–LSC) [mg-Eq·h/L]	SMILES	Occurrence in plasma [1]	also measured
observed	–	–	–	O=C(Nc1ccc(Cl)c(C(F)(F)F)c1)Nc1ccc(Oc2cc[n+]([O-])c(C(=O)NCO)c2)cc1F [M-1]	only occasionally found as traces in plasma	–
identified	not stable	28.7	20.16	CNC(=O)c1cc(Oc2ccc(NC(=O)Nc3ccc(Cl)c(C(F)(F)F)c3)c(F)c2)cc[n+]1[O-] [M-2]	–	Exposure relative to regorafenib after a single dose [2]: signficantly lower exposure than regorafenib; Secondary maximum of plasma concentration–time profile [2]: 6 to 8 h; Tertiary maximum of plasma concentration–time profile [2]: ~24 h; Conversion to the parent drug on incubation in feces (human feces): quantitative; Decrease in mean AUC [3]: > 90%; Decrease in mean C max [3]: > 90%; Fraction unbound in plasma [4]: 0.188%; half-life ([1]; male, human, plasma, oral, 120 mg, read-out: Half-life of M-2, range between subjects): 11 to 33 h
identified	–	–	–	O=C(Nc1ccc(Cl)c(C(F)(F)F)c1)Nc1ccc(Oc2ccnc(C(=O)NCO)c2)cc1F [M-3]	only occasionally found as traces in plasma	–
identified	–	–	–	NC(=O)c1cc(Oc2ccc(NC(=O)Nc3ccc(Cl)c(C(F)(F)F)c3)c(F)c2)ccn1 [M-4]	only occasionally found as traces in plasma	–
observed	–	6.3	2.00	NC(=O)c1cc(Oc2ccc(NC(=O)Nc3ccc(Cl)c(C(F)(F)F)c3)c(F)c2)cc[n+]1[O-] [M-5]	–	Terminal half-life (t 1/2) [2]: about 60 h; Exposure relative to regorafenib after a single dose [2]: signficantly lower exposure than regorafenib; Secondary maximum of plasma concentration–time profile [2]: 6 to 8 h; Tertiary maximum of plasma concentration–time profile [2]: ~24 h; Decrease in mean AUC [3]: > 90%; Decrease in mean C max [3]: > 90%; Fraction unbound in plasma [4]: 0.053%
identified	–	–	–	O=C(Nc1ccc(Cl)c(C(F)(F)F)c1)Nc1ccc(Oc2ccnc(C(=O)O)c2)cc1F [M-6]	–	–
identified	not stable	3.1	2.43	CNC(=O)c1cc(Oc2ccc(NC(=O)N(c3ccc(Cl)c(C(F)(F)F)c3)C3OC(C(=O)O)C(O)C(O)C3O)c(F)c2)ccn1 (stereo not shown) [M-7]	–	Fecal excretion of M-7 in individual subjects [5]: 0.03 % of the dose and 0.3 % of the dose and about 6.0 % of the dose and 13.7 % of the dose and about 14 % of the dose; Conversion to the parent drug on incubation in feces (human feces): < 10%; C max, range between subjects ([1]; plasma, HPLC–LSC): 137–174 μg-Eq/L
observed	not stable	–	–	CNC(=O)c1cc(Oc2ccc(NC(=O)N(c3ccc(Cl)c(C(F)(F)F)c3)C3OC(C(=O)O)C(O)C(O)C3O)c(F)c2)cc[n+]1[O-] (stereo not shown) [M-8]	only occasionally found as traces in plasma	Course of degradation on incubation with human feces (human feces): reduction of the N-oxide leading to M-7 proceeded much faster than cleavage of the N-glucuronide yielding M-2
